Laboratory results: US20250221966A1, “RXFP1 AGONISTS” (BRISTOL-MYERS SQUIBB COMPANY, priority 2021, published 2025)

Molecular target: T1, human RXFP1 (Homo sapiens, UniProt Q9HBX9)
T1 construct: expressed in transfected cells
T1 sequence (Q9HBX9 1-757): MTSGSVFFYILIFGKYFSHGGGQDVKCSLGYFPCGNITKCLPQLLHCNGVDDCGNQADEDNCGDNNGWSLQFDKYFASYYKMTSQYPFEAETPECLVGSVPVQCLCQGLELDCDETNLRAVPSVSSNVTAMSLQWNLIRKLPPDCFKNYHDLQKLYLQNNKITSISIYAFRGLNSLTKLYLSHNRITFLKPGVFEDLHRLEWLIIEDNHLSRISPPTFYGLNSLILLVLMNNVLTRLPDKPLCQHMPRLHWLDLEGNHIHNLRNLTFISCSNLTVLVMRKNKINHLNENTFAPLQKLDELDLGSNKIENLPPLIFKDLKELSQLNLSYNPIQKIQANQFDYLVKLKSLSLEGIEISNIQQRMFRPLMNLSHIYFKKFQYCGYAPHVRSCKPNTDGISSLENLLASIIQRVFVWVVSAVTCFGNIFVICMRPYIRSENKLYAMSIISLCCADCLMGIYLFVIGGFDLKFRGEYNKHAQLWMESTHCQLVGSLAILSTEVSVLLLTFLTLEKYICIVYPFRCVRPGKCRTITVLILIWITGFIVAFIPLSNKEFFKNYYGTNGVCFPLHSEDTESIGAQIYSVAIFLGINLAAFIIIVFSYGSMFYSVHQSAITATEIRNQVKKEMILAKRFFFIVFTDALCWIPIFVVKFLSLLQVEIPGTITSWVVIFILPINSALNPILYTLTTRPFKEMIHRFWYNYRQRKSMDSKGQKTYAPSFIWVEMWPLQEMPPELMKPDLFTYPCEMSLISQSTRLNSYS
Test: RXFP1 cAMP assay (hRXFP1 HEK293 cAMP assay, HTRF)
Format: cell-based
Conditions: HEK293 cells stably expressing human RXFP1, 30 min at room temperature, read-out: cAMP hRXFP1 HEK293 Assay EC50
Procedure, shortened: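 hRXFP1-HEK293 stable line; HBSS + Ca/Mg, 20 mM HEPES, 0.05% BSA, 0.5 mM IBMX; cpd 0.010 nM–50 μM, 2% DMSO; 30 min RT; lysis, HTRF cAMP detection; 4-PL fit.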

| EC50 | Structure (SMILES) |
| --- | --- |
| 36.7 nM | COc1ccc(C2=NOC3COCC23)cc1C(=O)N[C@H]1[C@@H](C(=O)NC2CCCCC2)[C@H]2CC[C@@H]1/C2=C\C1CC1 (stereo partly shown) [compound 552] |
| 590 nM | COc1ccc(-c2cccnc2F)cc1C(=O)N[C@H]1[C@@H](C(=O)Nc2ccc(F)c(C(F)(F)F)c2)[C@H]2CC[C@@H]1C2=C(C)C [compound 102] |
| 1.7 nM | COc1ccc(C2=NOC3CC(CO)CC23)cc1C(=O)N[C@H]1[C@@H](C(=O)N[C@H](C)C2(C)CC2)[C@H]2CC[C@@H]1/C2=C\c1csc(C(F)F)n1 (stereo partly shown) [compound 741] |
| 40 nM | C=C/C=C1\C2CCC1[C@H](C(=O)Nc1ccc(F)c(C(F)(F)F)c1)[C@@H]2NC(=O)c1cc(-c2cc(C(=O)NS(C)(=O)=O)ccc2F)ccc1OC (stereo partly shown) [compound 162] |
| 850 nM | COc1ccc(-c2cc(C(=O)O)ccc2F)cc1C(=O)N[C@@H]1C2CCC(/C2=C/C2CC2)[C@@H]1C(=O)NC1CC2(CCC2)C1 (stereo partly shown) [compound 301] |
| 1.9 nM | COc1ccc(C2=NO[C@H]3C[C@H](CO)C[C@@H]23)cc1C(=O)N[C@H]1[C@@H](C(=O)N[C@H](C)C2(C)CC2)[C@H]2CC[C@@H]1/C2=C\C1CCCC1 [compound 817] |
| 5 nM | COc1ccc(-c2cc(C(=O)O)ccc2F)cc1C(=O)N[C@H]1[C@@H](C(=O)Nc2ccc(C)c(C(F)(F)F)c2)[C@H]2CC[C@@H]1/C2=C\C1CC1 [Example 265, 3′-(((1R,2R,3S,4R,Z)-7-(cyclopropylmethylene)-3-((4-methyl-3-(trifluoromethyl)phenyl)carbamoyl)bicyclo[2.2.1]heptan-2-yl)carbamoyl)-6-fluoro-4′-methoxy-[1,1′-biphenyl]-3-carboxylic acid] |
| 3.4 nM | COc1cc(C)c(C2=NOC3CC(CO)CC23)cc1C(=O)N[C@H]1[C@@H](C(=O)Nc2ccc(F)c(C(F)(F)F)c2)[C@H]2CC[C@@H]1C2CC1CC1 (stereo partly shown) [compound 739] |
| 4.7 nM | COc1ccc(-c2cc([C@H](OC(=O)NC3CCC3)C(F)(F)F)ccc2F)cc1C(=O)N[C@@H]1C2CCC(/C2=C/CCC(F)(F)F)[C@@H]1C(=O)Nc1ccc(F)c(C(F)(F)F)c1 (stereo partly shown) [compound 923] |
| 2.5 nM | COc1ccc(-c2cnc3n2CC(O)CC3)cc1C(=O)N[C@H]1[C@@H](C(=O)Nc2ccc(F)c(C(F)(F)F)c2)[C@H]2CC[C@@H]1/C2=C\C1CC1 (stereo partly shown) [compound 752] |
| 831 nM | COc1ccc(C2=NOC(C)(C(=O)O)C2)cc1C(=O)N[C@@H]1C2CCC(/C2=C/C2CC2)[C@@H]1C(=O)Nc1ccc(F)c(C(F)(F)F)c1 (stereo partly shown) [compound 421] |
| 2.5 nM | COc1ccc(C2=NOC3CC(C(N)=O)CC23)cc1C(=O)N[C@H]1[C@@H](C(=O)Nc2ccc(F)c(C(F)(F)F)c2)[C@H]2CC[C@@H]1/C2=C\C1CC1 (single isomer, unassigned) [compound 459] |
| 2 nM | COc1ccc(-c2cc(C(OC(=O)NC3COC3)C(F)(F)F)ccc2F)cc1C(=O)N[C@@H]1C2CCC(/C2=C/C2CC2)[C@@H]1C(=O)Nc1ccc(F)c(C(F)(F)F)c1 (stereo partly shown) [compound 218] |
| 570 nM | COc1cc(F)c(F)cc1C(=O)N[C@@H]1C2CCC(/C2=C/c2cnn(Cc3ccccc3)c2)[C@@H]1C(=O)Nc1ccc(F)c(C(F)(F)F)c1 (stereo partly shown) [compound 61] |
| 2 nM | COc1ccc(-c2cc(C(OC(=O)NC3CC4(CC4)C3)C(F)(F)F)ccc2F)cc1C(=O)N[C@@H]1C2CCC(/C2=C/C2CC2)[C@@H]1C(=O)Nc1ccc(F)c(C(F)(F)F)c1 (stereo partly shown) [compound 215] |
| 912 nM | COc1ccc(C2=NOC(C(=O)O)(C(C)(C)C)C2)cc1C(=O)N[C@H]1[C@@H](C(=O)Nc2ccc(F)c(C(F)(F)F)c2)[C@H]2CC[C@@H]1/C2=C\C(F)(F)F (stereo partly drawn) [Example 397, 5-(tert-butyl)-3-(3-(((1R,2R,3S,4R,Z)-3-((4-fluoro-3-(trifluoromethyl)phenyl)carbamoyl)-7-(2,2,2-trifluoroethylidene)bicyclo[2.2.1]heptan-2-yl)carbamoyl)-4-methoxyphenyl)-4,5-dihydroisoxazole-5-carboxylic acid] |
| 5 nM | COc1ccc(-c2cc(C(F)(F)F)ccc2F)cc1C(=O)N[C@@H]1C2CCC(/C2=C/C2CC2)[C@@H]1C(=O)Nc1ccc(F)c(C(F)(F)F)c1 (stereo partly shown) [compound 286] |
| 6.4 nM | COc1ccc(C2=NOC3COCC23)cc1C(=O)N[C@H]1[C@@H](C(=O)NCC2(C)CCC2)[C@H]2CC[C@@H]1/C2=C\C1CC1 (stereo partly shown) [compound 477] |
| 1.6 nM | COc1ccc(-c2cc([C@H](OC(=O)NC3CC3)C(F)(F)F)ccc2F)cc1C(=O)N[C@H]1[C@@H](C(=O)Nc2ccc(F)c(C(F)(F)F)c2)[C@H]2CC[C@@H]1/C2=C\CC(C)C [compound 929] |

| EC50 | Structure (SMILES) |
| --- | --- |
| 1.4 nM | COc1ccc(-c2cc(C(OC(=O)NC(C)(C)C)C(=O)O)ccc2F)cc1C(=O)N[C@H]1[C@@H](C(=O)Nc2ccc(F)c(C(F)(F)F)c2)[C@H]2CC[C@@H]1/C2=C\CCC(F)(F)F (stereo partly shown) [compound 934] |
| 25 nM | COC(=O)NC(C(=O)O)c1ccc(F)c(-c2ccc(OC)c(C(=O)N[C@@H]3C4CCC(/C4=C/C(F)(F)F)[C@@H]3C(=O)Nc3ccc(F)c(C(F)(F)F)c3)c2)c1 (stereo partly shown) [compound 186] |
| 360 nM | COc1ccc(C2=NOC3CCCC23)cc1C(=O)N[C@H]1[C@@H](C(=O)Nc2ccc(F)c(C(F)(F)F)c2)[C@H]2CC[C@@H]1/C2=C\C1CC1 (single isomer, unassigned) [Example 441] |
| 194 nM | COc1ccc(C2=NOC3CC(CO)CC23)cc1C(=O)N[C@@H]1C2CCC(/C2=C/C2CC2)[C@@H]1C(=O)Nc1ccc(F)c(C(F)(F)F)c1 (single isomer, unassigned) [Example 430] |
| 4 nM | COc1ccc(-c2cc(C(C)O)ccc2F)cc1C(=O)N[C@@H]1C2CCC(/C2=C/C2CC2)[C@@H]1C(=O)Nc1ccc(F)c(C(F)(F)F)c1 (stereo partly shown) [compound 248] |
| 1880 nM | COc1ccc(-c2cc(C(=O)O)ccc2F)cc1C(=O)N[C@@H]1C2CCC(/C2=C/C2CC2)[C@@H]1C(=O)N[C@H](C)c1ccccc1 (stereo partly shown) [compound 261] |
| 580 nM | COc1ccc(-c2cccc(C(=O)O)c2OC)cc1C(=O)N[C@H]1[C@@H](C(=O)Nc2ccc(F)c(C(F)(F)F)c2)[C@H]2CC[C@@H]1C2=C(C)C [compound 101] |
| 815 nM | COc1ccc(C2=CCCN(CC(=O)O)C2)cc1C(=O)N[C@H]1[C@@H](C(=O)Nc2ccc(F)c(C(F)(F)F)c2)[C@H]2CC[C@@H]1/C2=C\C1CC1 [Example 259, 2-(5-(3-(((1R,2R,3S,4R,Z)-7-(cyclopropylmethylene)-3-((4-fluoro-3-(trifluoromethyl)phenyl)carbamoyl)bicyclo[2.2.1]heptan-2-yl)carbamoyl)-4-methoxyphenyl)-3,6-dihydropyridin-1(2H)-yl)acetic acid] |
| 3910 nM | COc1ccc(C2=NOC3COCC23)cc1C(=O)N[C@H]1[C@@H](C(=O)NCc2cccnc2C)[C@H]2CC[C@@H]1/C2=C\C1CC1 (stereo partly shown) [compound 721] |
| 370 nM | CCCC#C/C=C1\C2CCC1[C@H](C(=O)Nc1ccc(F)c(C(F)(F)F)c1)[C@@H]2NC(=O)c1cc(F)c(F)cc1OC (stereo partly shown) [compound 135] |
| 2700 nM | COc1ccc(-c2ccc(F)nc2F)cc1C(=O)N[C@H]1[C@@H](C(=O)Nc2ccc(F)c(C(F)(F)F)c2)[C@H]2CC[C@@H]1C2=C(C)C [compound 106] |
| 1100 nM | COc1cc(F)c(F)cc1C(=O)N[C@@H]1C2CCC(/C2=C/C2=CCOC2)[C@@H]1C(=O)Nc1ccc(F)c(C(F)(F)F)c1 (stereo partly shown) [compound 58] |
| 102 nM | COc1ccc(C2=NOC3COCC23)cc1C(=O)N[C@H]1[C@@H](C(=O)NCC2CCC2)[C@H]2CC[C@@H]1/C2=C\C1CC1 (stereo partly shown) [compound 597] |
| 3 nM | COc1ccc(-c2cc(C(O)C(F)(F)F)ccc2F)cc1C(=O)N[C@@H]1C2CCC(/C2=C/C2CC2)[C@@H]1C(=O)Nc1ccc(F)c(C(F)(F)F)c1 (stereo partly shown) [Example 245] |
| 44.3 nM | COCCOC1(C2CC(c3ccc(OC)c(C(=O)N[C@H]4[C@@H](C(=O)Nc5ccc(F)c(C(F)(F)F)c5)[C@H]5CC[C@@H]4/C5=C\C4CC4)c3)=NO2)CC1 (single isomer, unassigned) [compound 558] |
| 2 nM | COc1ccc(-c2cc(C(OC(=O)Nc3ccccc3)C(F)F)ccc2F)cc1C(=O)N[C@H]1[C@@H](C(=O)Nc2ccc(F)c(C(F)(F)F)c2)[C@H]2CC[C@@H]1/C2=C\C1CC1 (stereo partly drawn) [Example 233, 1-(3′-(((1R,2R,3S,4R,Z)-7-(cyclopropylmethylene)-3-((4-fluoro-3-(trifluoromethyl)phenyl)carbamoyl)bicyclo[2.2.1]heptan-2-yl)carbamoyl)-6-fluoro-4′-methoxy-[1,1′-biphenyl]-3-yl)-2,2-difluoroethyl phenylcarbamate] |
| 7 nM | COc1ccc(-c2cc(C3=NOC4CC(CO)CC34)ccc2F)cc1C(=O)N[C@H]1[C@@H](C(=O)Nc2ccc(F)c(C(F)(F)F)c2)[C@H]2CC[C@@H]1/C2=C\C1CC1 (stereo partly shown) [compound 953] |
| 5 nM | COc1c(F)cc(C2=NOC3CC(CO)CC23)cc1C(=O)N[C@H]1[C@@H](C(=O)N[C@H](C)C23CC(C2)C3)[C@H]2CC[C@@H]1/C2=C\C1CC1 (stereo partly shown) [compound 776] |
